Measurements taken from patent US7989451B2, “Tricyclic 1,2,4-triazine oxides and compositions for therapeutic use in cancer treatments” (Auckland Uniservices Limited, priority 2005, dated 2011).
Like-named read-outs stand apart in the source and are kept apart here.

Key:
[1] = test system: human colon carcinoma HT29; assay: Proliferation assay (IC50) under aerobic and hypoxic conditions, HT29; format: cell-based; conditions: for IC50: Homo sapiens, 4 h drug exposure, sulforhodamine B; for HCR: hypoxic cytotoxicity ratio = IC50 aerobic/IC50 hypoxic
Description: (§1) Compounds representative of the invention were evaluated under both aerobic and hypoxic conditions in a proliferation assay (IC50), using two cell lines: human colon carcinoma HT29, and human cervical carcinoma SiHa (Table 1).
(§2) Drug exposures were performed in 96-well plates (Nunc) either using a 37 DC humidified incubator (20% O2, 5% CO2) or in the incubator compartment (37° C.) of an anaerobic chamber (Shell Lab) where palladium catalyst scrubbed gas (90% N2, 5% H2, 5% CO2) ensures severe anoxia (<0.001% O2). For each experiment, compounds were simultaneously tested under both oxic and hypoxic conditions and included TPZ as an internal control. An 8-methyl-5-nitroquinoline derivative, SN 24349, known to require very low oxygen concentrations for bioactivation (Siim et al., Br. J. Cancer 1994, 70, 596-603) was used to confirm that strict hypoxia was present during the experiment. […] Cell cultures were grown in αMEM (Gibco) containing 5% heat inactivated FCS and maintained in exponential growth phase. For each individual experiment an appropriate number of cells were seeded (HT29=1100; SiHa=1500) into wells in αMEM+10% FCS+10 mM added glucose+100 μM 2′-deoxycytidine (2′dCyd), and allowed to attach for 2-3 h. High glucose (final concentration 17 mM) and the presence of 2′-dCyd minimize hypoxia-induced cell cycle arrest. Cultures were then exposed to drugs, using 3-fold serial dilutions in duplicate, for a further 4 h. Subsequently cells were washed free of compound using complete media (without glucose/2′-dCyd) and allowed to grow for 5 (oxic) or 6 (anoxic) days. Plates were stained with sulforhodamine B as described previously (Wilson et al., J. Med. Chem. 1989, 32, 31-38) and IC50 values determined.
(§3) HCR=Hypoxic cytotoxicity ratio is defined as the ratio of IC50 values under aerobic and hypoxic conditions (IC50 aerobic/IC50 hypoxic).

[2] = test system: human cervical carcinoma SiHa; assay: Proliferation assay (IC50) under aerobic and hypoxic conditions, SiHa; format: cell-based; conditions: for IC50: Homo sapiens, 4 h drug exposure, sulforhodamine B; for HCR: hypoxic cytotoxicity ratio = IC50 aerobic/IC50 hypoxic
Description: as §1, §2, §3

[3] = HT-29, hypoxic (anaerobic chamber, <0.001% O2), then 6 days growth, read-out: IC50 (μM) hypoxic
[4] = HT-29, oxic (20% O2), then 5 days growth, read-out: IC50 (μM) oxic
[5] = hypoxic (anaerobic chamber, <0.001% O2), then 6 days growth, read-out: IC50 (μM) hypoxic
[6] = oxic (20% O2), then 5 days growth, read-out: IC50 (μM) oxic

| SMILES | IC50 [1, 3] [µM] | IC50 [1, 4] [µM] | HCR [1] | IC50 [2, 5] [µM] | IC50 [2, 6] [µM] | HCR [2] | melting point |
| --- | --- | --- | --- | --- | --- | --- | --- |
| COCCN(C)CCCNc1n[n+]([O-])c2cc3c(cc2[n+]1[O-])CCC3 [Compound 53, N^1-(1,4-Dioxido-7,8-dihydro-6H-indeno[5,6-e][1,2,4]triazin-3-yl)-N^3-(2-methoxyethyl)-N^3-methyl-1,3-propanediamine] | 5.4 ± 2.8 | 261 ± 90 | 81 ± 60 | 2.6 ± 0.4 | 142 ± 6 | 55 ± 6 | 77 to 79 °C |
| [O-][n+]1nc(NCCCO)[n+]([O-])c2cc3c(cc21)CCC3 [Compound 51, 3-[(1,4-Dioxido-7,8-dihydro-6H-indeno[5,6-e][1,2,4]triazin-3-yl)amino]-1-propanol] | > 50 | 1610 |  | 20.5 ± 3.3 | 455 ± 25 | 22 ± 1 | 182 to 184 °C |
| [O-][n+]1nc(NCCCCN2CCOCC2)[n+]([O-])c2cc3c(cc21)CCC3 [Compound 63, N-[4-(4-Morpholinyl)butyl]-7,8-dihydro-6H-indeno[5,6-e][1,2,4]triazin-3-amine 1,4-Dioxide] | 14.2 | 325 ± 70 | 28 | 5.3 ± 0.4 | 239 ± 22 | 46 ± 8 | 140 to 141 °C |
| CCc1n[n+]([O-])c2cc3c(cc2[n+]1[O-])CC(CO)C3 (centres unmarked) [Compound 136, (3-Ethyl-1,4-dioxido-7,8-dihydro-6H-indeno[5,6-e][1,2,4]triazin-7-yl)methanol] | 17.1 | 774 ± 8 | 45 | 6.5 ± 0.2 | 314 ± 60 | 48 ± 8 | 157 to 158 °C |
| CCc1n[n+]([O-])c2cc3c(cc2[n+]1[O-])CN(C)CC3 [Compound 261, 3-Ethyl-7-methyl-6,7,8,9-tetrahydro[1,2,4]triazino[6,5-g]isoquinoline 1,4-Dioxide] | 13 ± 1 | 24 ± 2 | 2 ± 0.2 | 3.1 ± 0.1 | 18 ± 1 | 6 ± 0.2 | 124 to 128 °C |
| [O-][n+]1nc(NCCCN2CCOCC2)[n+]([O-])c2cc3c(cc21)OCC3 [Compound 200, N-[3-(4-Morpholinyl)propyl]-6,7-dihydrofuro[3,2-g][1,2,4]benzotriazin-3-amine 1,4-Dioxide] | 22 ± 4.2 | 177 ± 80 | 8 ± 3 | 3.4 ± 0.8 | 90 ± 24 | 28 ± 6 | 145 to 148 °C |
| [O-][n+]1cn[n+]([O-])c2cc3c(cc21)CCC3 [Compound 65, 7,8-Dihydro-6H-indeno[5,6-e][1,2,4]triazine 1,4-Dioxide] | 2.4 ± 0.4 | 401 ± 236 | 226 ± 153 | 1 ± 0.5 | 80 ± 7 | 155 ± 117 | 179 to 181 °C |
| [O-][n+]1nc(NCCO)[n+]([O-])c2cc3c(cc21)CCC3 [Compound 25, 2-[(1,4-Dioxido-7,8-dihydro-6H-indeno[5,6-e][1,2,4]triazin-3-yl)amino]ethanol] | 47 ± 4 | 1520 | 32 | 17.7 ± 0.6 | 751 | 42 | 187 to 188 °C |
| COCCN(C)CCNc1n[n+]([O-])c2cc3c(cc2[n+]1[O-])CCC3 [Compound 31, N^1-(1,4-Dioxido-7,8-dihydro-6H-indeno[5,6-e][1,2,4]triazin-3-yl)-N^2-(2-methoxyethyl)-N2-methyl-1,2-ethanediamine] | 5.9 ± 0.8 | 172 ± 100 | 26 ± 12 | 2.5 ± 0.8 | 162 ± 48 | 67 ± 2 | 58 to 61 °C |
| COC1CN(CCCNc2n[n+]([O-])c3cc4c(cc3[n+]2[O-])CCC4)C1 [Compound 55, N-[3-(3-Methoxy-1-azetidinyl)propyl]-7,8-dihydro-6H-indeno[5,6-e][1,2,4]triazin-3-amine 1,4-Dioxide] | 2.4 ± 0.3 | 233 ± 19 | 102 ± 22 | 1.4 ± 0.4 | 99 ± 14 | 83 ± 34 | 150 to 152 °C |
| CN(C)CCNc1n[n+]([O-])c2cc3c(cc2[n+]1[O-])OCO3 [Compound 224, N^1-(1,4-Dioxido[1,3]dioxolo[4,5-g][1,2,4]benzotriazin-3-yl)-N^2,N^2-dimethyl-1,2-ethanediamine] | 13 ± 7 | 471 ± 443 | 26 ± 21 | 4.7 ± 3.3 | 304 ± 254 | 53 ± 17 | 175 to 179 °C |
| CC1CCCC(C)N1CCNc1n[n+]([O-])c2cc3c(cc2[n+]1[O-])CCC3 (centres unmarked) [Compound 39, N-[2-(2,6-Dimethyl-1-piperidinyl)ethyl]-7,8-dihydro-6H-indeno[5,6-e][1,2,4]triazin-3-amine 1,4-Dioxide] | 2.7 ± 0.2 | 117 ± 47 | 42 ± 15 | 1.1 ± 0.1 | 73 ± 14 | 65 ± 13 | 170 to 172 °C |
| CN(C)CCNc1n[n+]([O-])c2cc3c(cc2[n+]1[O-])OCC3 [Compound 208, N^1-(1,4-Dioxido-7,8-dihydrofuro[2,3-g][1,2,4]benzotriazin-3-yl)-N^2,N^2-dimethyl-1,2-ethanediamine] | 5.2 ± 0.3 | 258 ± 207 | 46 ± 36 | 1.9 ± 0.2 | 176 ± 70 | 128 ± 3 | 186 to 189 °C |
| CC1Cc2cc3c(cc2C1)[n+]([O-])c(NCCCN1CCOCC1)n[n+]3[O-] (centres unmarked) [Compound 99, 7-Methyl-N-[3-(4-morpholinyl)propyl]-7,8-dihydro-6H-indeno[5,6-e][1,2,4]triazin-3-amine 1,4-Dioxide] | 19 ± 6 | 459 ± 93 | 25 ± 2 | 8.4 ± 3.2 | 415 ± 133 | 50 ± 3 | 161 to 163 °C |
| Nc1n[n+]([O-])c2cc3c(cc2[n+]1[O-])OCC3 [Compound 205, 7,8-Dihydrofuro[2,3-g][1,2,4]benzotriazin-3-amine 1,4-Dioxide] | 117 | 495 | 4 | 23 | > 500 |  | > 300 °C (dec.) |
| CC1Cc2cc3c(cc2C1)[n+]([O-])c(CCCN1CCOCC1)n[n+]3[O-] (centres unmarked) [Compound 104, 7-Methyl-3-[3-(4-morpholinyl)propyl]-7,8-dihydro-6H-indeno[5,6-e][1,2,4]triazine 1,4-Dioxide] | 2.9 ± 0.1 | 210 ± 38 | 72 ± 13 | 1.7 ± 0.2 | 226 ± 14 | 134 ± 4 | 119 to 121 °C |
